Measurements published in ChEMBL document CHEMBL3817755, “Design, synthesis and biological evaluation of indazolepyrimidine based derivatives as anticancer agents with anti-angiogenic and antiproliferative activities” (Medchemcomm, 2016).

Columns and labels:
Type in all cases: functional
[1] = Growth inhibition of human OVCAR5 cells at 10 uM after 48 hrs by SRB assay; settings: OVCAR-5, 48 h, read-out: GI
[2] = Growth inhibition of human RPMI8226 cells at 10 uM after 48 hrs by SRB assay; settings: RPMI-8226, 48 h, read-out: GI
[3] = Growth inhibition of human TK10 cells at 10 uM after 48 hrs by SRB assay; settings: TK-10, 48 h, read-out: GI
MDA-MB-468 = experiment: Growth inhibition of human MDA-MB-468 cells at 10 uM after 48 hrs by SRB assay; settings: MDA-MB-468, 48 h, read-out: GI
U-251 = experiment: Growth inhibition of human U251 cells at 10 uM after 48 hrs by SRB assay; settings: U-251, 48 h, read-out: GI
MDA-MB-435 = experiment: Growth inhibition of human MDA-MB-435 cells at 10 uM after 48 hrs by SRB assay; settings: MDA-MB-435, 48 h, read-out: GI
[4] = Growth inhibition of human SKOV3 cells at 10 uM after 48 hrs by SRB assay; settings: SK-OV-3, 48 h, read-out: GI
[5] = Growth inhibition of human RXF393 cells at 10 uM after 48 hrs by SRB assay; settings: RXF 393, 48 h, read-out: GI
[6] = Growth inhibition of human HOP92 cells at 10 uM after 48 hrs by SRB assay; settings: HOP-92, 48 h, read-out: GI
KM12 = experiment: Growth inhibition of human KM12 cells at 10 uM after 48 hrs by SRB assay; settings: KM12, 48 h, read-out: GI
[7] = Growth inhibition of human OVCAR3 cells at 10 uM after 48 hrs by SRB assay; settings: OVCAR-3, 48 h, read-out: GI
[8] = Growth inhibition of human HCT15 cells at 10 uM after 48 hrs by SRB assay; settings: HCT-15, 48 h, read-out: GI
SN12C = experiment: Growth inhibition of human SN12C cells at 10 uM after 48 hrs by SRB assay; settings: read-out: GI
[9] = Growth inhibition of human OVCAR8 cells at 10 uM after 48 hrs by SRB assay; settings: OVCAR-8, 48 h, read-out: GI
NCI-H522 = experiment: Growth inhibition of human NCI-H522 cells at 10 uM after 48 hrs by SRB assay; settings: NCI-H522, 48 h, read-out: GI
[10] = Growth inhibition of human HCT116 cells at 10 uM after 48 hrs by SRB assay; settings: HCT-116, 48 h, read-out: GI
[11] = Growth inhibition of human SF295 cells at 10 uM after 48 hrs by SRB assay; settings: SF-295, 48 h, read-out: GI
NCI-H23 = experiment: Growth inhibition of human NCI-H23 cells at 10 uM after 48 hrs by SRB assay; settings: NCI-H23, 48 h, read-out: GI
[12] = Growth inhibition of human UACC62 cells at 10 uM after 48 hrs by SRB assay; settings: UACC-62, 48 h, read-out: GI
M14 = experiment: Growth inhibition of human M14 cells at 10 uM after 48 hrs by SRB assay; settings: M14, 48 h, read-out: GI
[13] = Growth inhibition of human OVCAR4 cells at 10 uM after 48 hrs by SRB assay; settings: OVCAR-4, 48 h, read-out: GI
MDA-MB-231 = experiment: Growth inhibition of human MDA-MB-231 cells at 10 uM after 48 hrs by SRB assay; settings: MDA-MB-231, 48 h, read-out: GI
[14] = Growth inhibition of human COLO205 cells at 10 uM after 48 hrs by SRB assay; settings: COLO 205, 48 h, read-out: GI
T47D = experiment: Growth inhibition of human T47D cells at 10 uM after 48 hrs by SRB assay; settings: read-out: GI
[15] = Growth inhibition of human SNB75 cells at 10 uM after 48 hrs by SRB assay; settings: SNB-75, 48 h, read-out: GI
786-0 = experiment: Growth inhibition of human 786-0 cells at 10 uM after 48 hrs by SRB assay; settings: 786-0, 48 h, read-out: GI
[16] = Growth inhibition of human UO31 cells at 10 uM after 48 hrs by SRB assay; settings: UO-31, 48 h, read-out: GI
[17] = Growth inhibition of human BT549 cells at 10 uM after 48 hrs by SRB assay; settings: BT-549, 48 h, read-out: GI
HT-29 = experiment: Growth inhibition of human HT-29 cells at 10 uM after 48 hrs by SRB assay; settings: HT-29, 48 h, read-out: GI
EKVX = experiment: Growth inhibition of human EKVX cells at 10 uM after 48 hrs by SRB assay; settings: read-out: GI
K562 = experiment: Growth inhibition of human K562 cells at 10 uM after 48 hrs by SRB assay; settings: K562, 48 h, read-out: GI
A549 = experiment: Growth inhibition of human A549/ATCC cells at 10 uM after 48 hrs by SRB assay; settings: A549, 48 h, read-out: GI
CCRF-CEM = experiment: Growth inhibition of human CCRF-CEM cells at 10 uM after 48 hrs by SRB assay; settings: read-out: GI
[18] = Growth inhibition of human SF268 cells at 10 uM after 48 hrs by SRB assay; settings: SF-268, 48 h, read-out: GI
[19] = Growth inhibition of human PC3 cells at 10 uM after 48 hrs by SRB assay; settings: PC-3, 48 h, read-out: GI
Malme-3M = experiment: Growth inhibition of human MALME-3M cells at 10 uM after 48 hrs by SRB assay; settings: read-out: GI
MCF7 = experiment: Growth inhibition of human MCF7 cells at 10 uM after 48 hrs by SRB assay; settings: MCF7, 48 h, read-out: GI
[20] = Growth inhibition of human HOP62 cells at 10 uM after 48 hrs by SRB assay; settings: HOP-62, 48 h, read-out: GI
[21] = Growth inhibition of human HCC2998 cells at 10 uM after 48 hrs by SRB assay; settings: HCC 2998, 48 h, read-out: GI
SK-MEL-28 = experiment: Growth inhibition of human SK-MEL-28 cells at 10 uM after 48 hrs by SRB assay; settings: SK-MEL-28, 48 h, read-out: GI
[22] = Growth inhibition of human MOLT4 cells at 10 uM after 48 hrs by SRB assay; settings: MOLT-4, 48 h, read-out: GI
NCI-H226 = experiment: Growth inhibition of human NCI-H226 cells at 10 uM after 48 hrs by SRB assay; settings: NCI-H226, 48 h, read-out: GI

NS(=O)(=O)c1ccc(Nc2nccc(Nc3ccc4[nH]ncc4c3)n2)cc1
inhibition of growth at 10 µM [1]: -10% | inhibition of growth at 10 µM [2]: 16% | inhibition of growth at 10 µM [3]: -16% | inhibition of growth at 10 µM (MDA-MB-468): 36% | inhibition of growth at 10 µM (U-251): 19% | inhibition of growth at 10 µM (MDA-MB-435): 1% | inhibition of growth at 10 µM [4]: -4% | inhibition of growth at 10 µM [5]: 11% | inhibition of growth at 10 µM [6]: 47% | inhibition of growth at 10 µM (KM12): 22% | inhibition of growth at 10 µM [7]: -10% | inhibition of growth at 10 µM [8]: -6% | inhibition of growth at 10 µM (SN12C): 10% | inhibition of growth at 10 µM [9]: 18% | inhibition of growth at 10 µM (NCI-H522): 57% | inhibition of growth at 10 µM [10]: 5% | inhibition of growth at 10 µM [11]: 2% | inhibition of growth at 10 µM (NCI-H23): 14% | inhibition of growth at 10 µM [12]: 11% | inhibition of growth at 10 µM (M14): 5% | inhibition of growth at 10 µM [13]: -12% | inhibition of growth at 10 µM (MDA-MB-231): 14% | inhibition of growth at 10 µM [14]: -4% | inhibition of growth at 10 µM (T47D): 50% | inhibition of growth at 10 µM [15]: 22% | inhibition of growth at 10 µM (786-0): -1% | inhibition of growth at 10 µM [16]: 18% | inhibition of growth at 10 µM [17]: -6% | inhibition of growth at 10 µM (HT-29): 9% | inhibition of growth at 10 µM (EKVX): -1% | inhibition of growth at 10 µM (K562): 25% | inhibition of growth at 10 µM (A549): 11% | inhibition of growth at 10 µM (CCRF-CEM): 28% | inhibition of growth at 10 µM [18]: 12% | inhibition of growth at 10 µM [19]: 25% | inhibition of growth at 10 µM (Malme-3M): -3% | inhibition of growth at 10 µM (MCF7): 40% | inhibition of growth at 10 µM [20]: 17% | inhibition of growth at 10 µM [21]: -18% | inhibition of growth at 10 µM (SK-MEL-28): -18% | inhibition of growth at 10 µM [22]: 12% | inhibition of growth at 10 µM (NCI-H226): 28%
